This note sets out measurements from US20140038847A1, “SCREENING AND CULTURING DEVICE AND METHODS FOR THE USE THEREOF” (Microstem, Inc., priority 2010, published 2014).

Series [1] has as its system MCF-7 breast carcinoma cells. In words: Paclitaxel multiparameter cytotoxicity in MCF-7 cells attached to ECM spots of the array (Cellomics Multiparameter Cytotoxicity 3 kit). The series is classed as cell-based, human. Conditions: cells grown on matrix of collagen IV, collagen V and fibronectin in equal concentrations, compared with fibronectin alone.
Description: The human breast adenocarcinoma cell line MCF-7 was purchased from American Type Culture Collection (ATCC). Cells were cultured in minimal essential medium (DMEM), supplemented with 10% FBS and antibiotics (100 IU/ml of penicillin G), then incubated at 37° C. in a humidified atmosphere of 5% CO2. […] MCF-7 cells were seeded into 4 well plates containing an exemplary microarray slide according to the present invention at a density of about 0.1×10^6 cells/ml in 5 ml complete medium (0.5×10^6 cells/slide, total 8 slides) and cultured at 37° C. After 7 h of incubation, non adherent cells were removed and the slide was washed 1× with complete culture medium. New media with varying concentrations of paclitaxel was added ranging from 0 nM-3 uM (0 nM, 3 nM, 10 nM, 30 nM, 100 nM, 300 nm, 1 μM, 3 μM). Cells were incubated for about 16 h at 37° C. Slides were processed using the protocol provided by the manufacturer of the Cellomics Multiparameter Cytotoxicity 3 kit, employing the reagents included in the kit. […] The resulting slides were kept protected from light and analyzed within about 24 h. […] Compartmental Analysis BioApplication (Cellomics) software was used to quantify fluorescent signal. […]
Series [2] relates to A549 lung cancer cell line. In words: TGF-β-induced epithelial mesenchymal transition of A549 cells on MicroMatrix ECM array (e-cadherin / vimentin staining). Type of series: cell-based, human. As for the experimental part: Packages containing products which embody present invention (MicroMatrix™ slides) were removed from −20° C. and brought to room temperature (RT). Using sterile techniques, 4 MicroMatrix™ slides were removed from packaging and put into a 4-chamber slide tray. A549 cells (ATCC, Rockville, Md.) were cultured according to manufacturer's protocol in complete medium of DMEM containing 10% FBS and antibiotics (Life Technology, CA) in standard tissue culture treated T-75 flasks (Corning).
Cells were trypsinized with EDTA for 5 minutes and neutralized with 10 ml of complete medium. Neutralized cell suspensions were put into a 50 ml conical tube and centrifuged for 6 minutes at 1100 rpm. Five milliliters of complete medium containing 5×10^5 cells was added to each of 4 identical MicroMatrix™ slides in the slide tray. The tray was placed in a 37° C. incubator with 5% CO2 and cells were allowed to attach to ECM spots overnight (14 hrs).
Unattached cells and media were aspirated from the slides and 5 ml of media containing 1% FBS with or without 5 ng/ml of TGF-β were added to each chamber. After 24 hrs, media was aspirated from the chamber and 5 ml of 4% para-formaldehyde (PFA) in 1×PBS (fixation buffer) was added to each slide for 10 minutes at RT.
Fixation buffer was aspirated from chambers and fixed slides were stained for nuclei, e-cadherin and vimentin expression. Briefly, mouse anti-human e-cadherin antibody (BD, CA) and rabbit anti-human vimentin (Cell Signaling Technology) antibody were added to each of 4 slides at a 1:100 dilution in PBS at RT for 3 hours. […]
Cell adhesion was determined by the number of nuclei present on a spot. […] Cells adhered to ECM compositions that met the 25 cell/spot criteria were then analyzed for e-cadherin and vimentin expression using the same Bioapplication software. A ring was formed around segmented objects (nuclei) and fluorescence measurements for secondary channels were captured. Average intensities of e-cadherin and vimentin were calculated and normalized by cells per spot.

Where [3] appears, read: A549 on certain combinations of ECMs, 24 hrs, 5 ng/ml TGF-β, compared with other ECM compositions.

Regarding `CC(=O)O[C@H]1C(=O)[C@@]2(C)[C@H]([C@H](OC(=O)c3ccccc3)[C@]3(O)C[C@H](OC(=O)[C@H](O)[C@@H](NC(=O)c4ccccc4)c4ccccc4)C(C)=C1C3(C)C)[C@]1(OC(C)=O)CO[C@@H]1C[C@@H]2O` [paclitaxel, Paclitaxel], in series [1], the “cytotoxic response of MCF-7 cells to paclitaxel (same cytotoxicity parameters)” value was “maintain a resistance to paclitaxel”.

Regarding TGF-β, in series [2] (setting [3]), the “e-cadherin expression (epithelial marker)” value is listed as “decreases in e-cadherin” and the “vimentin expression (mesenchymal marker)” value is recorded as “increases in vimentin expression”. The A549 cell attachment result in series [2] (certain ECM compositions that promote attachment without TGF-β, upon addition of TGF-β) is “cell detachment is observed”.
